Experimental data from PubChem BioAssay AID248 (DTP/NCI, 2004).
Inconclusive results and toxic doses are left out. Cut-off read from the data, not from the text of the source: active = T/C of 150% or more; inactive = T/C below 125%.

Tested on: L1210 leukemia ip in BDF1 mice, survival T/C
Assay: NCI In Vivo Anticancer Drug Screen. Data for tumor model L1210 Leukemia (intraperitoneal) in B6D2F1 (BDF1) mice
Details: endpoint: mean survival time, higher = longer survival
Summary of the method: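 Transplantable tumor model; survival measured in treated vs vehicle control mice. Value = treated/control.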

[1] = dose: 100.0 mg/kg/injection, schedule: Q04DX002 (ip), vehicle: saline with Tween-80
[2] = dose: 100.0 mg/kg/injection, schedule: Q04DX003 (ip), vehicle: saline
[3] = dose: 200.0 mg/kg/injection, schedule: Q04DX003 (ip), vehicle: saline
[4] = dose: 100.0 mg/kg/injection, schedule: Q01DX001 (ip), vehicle: Klucel (hydroxypropylcellulose) (HPC)
[5] = dose: 200.0 mg/kg/injection, schedule: Q01DX001 (ip), vehicle: Klucel (hydroxypropylcellulose) (HPC)
[6] = dose: 400.0 mg/kg/injection, schedule: Q01DX001 (ip), vehicle: Klucel (hydroxypropylcellulose) (HPC)
[7] = dose: 100.0 mg/kg/injection, schedule: Q04DX003 (ip), vehicle: Klucel (hydroxypropylcellulose) (HPC)
[8] = dose: 200.0 mg/kg/injection, schedule: Q04DX003 (ip), vehicle: Klucel (hydroxypropylcellulose) (HPC)
[9] = dose: 100.0 mg/kg/injection, schedule: Q01DX009 (ip), vehicle: Klucel (hydroxypropylcellulose) (HPC)
[10] = dose: 200.0 mg/kg/injection, schedule: Q01DX009 (ip), vehicle: Klucel (hydroxypropylcellulose) (HPC)
[11] = dose: 400.0 mg/kg/injection, schedule: Q01DX009 (ip), vehicle: Klucel (hydroxypropylcellulose) (HPC)
[12] = dose: 100.0 mg/kg/injection, schedule: Q01DX001 (ip), vehicle: saline
[13] = dose: 200.0 mg/kg/injection, schedule: Q01DX001 (ip), vehicle: saline
[14] = dose: 400.0 mg/kg/injection, schedule: Q01DX001 (ip), vehicle: saline
[15] = dose: 400.0 mg/kg/injection, schedule: Q04DX003 (ip), vehicle: Klucel (hydroxypropylcellulose) (HPC)
[16] = dose: 100.0 mg/kg/injection, schedule: Q01DX009 (ip), vehicle: saline with Tween-80
[17] = dose: 100.0 mg/kg/injection, schedule: Q04DX003 (ip), vehicle: saline with Tween-80
[18] = dose: 200.0 mg/kg/injection, schedule: Q04DX003 (ip), vehicle: saline with Tween-80
[19] = dose: 200.0 mg/kg/injection, schedule: Q01DX009 (ip), vehicle: saline with Tween-80

Measured: T/C

O=S(=O)(ON1C=CC=CC1)ON1C=CC=CC1
inactive: dose: 25.0 mg/kg/injection, schedule: Q04DX002 (ip), vehicle: saline with Tween-80 106 % of control | dose: 50.0 mg/kg/injection, schedule: Q04DX002 (ip), vehicle: saline with Tween-80 95 % of control | [1] 106 % of control

CC12CCC3C(CCC4CC5SC5CC43C)C1CCC2O (stereo not given)
inactive: dose: 100.0 mg/kg/injection, schedule: Q04DX002 (ip), vehicle: Klucel (hydroxypropylcellulose) (HPC) 108 % of control | dose: 200.0 mg/kg/injection, schedule: Q04DX002 (ip), vehicle: Klucel (hydroxypropylcellulose) (HPC) 111 % of control | dose: 400.0 mg/kg/injection, schedule: Q04DX002 (ip), vehicle: Klucel (hydroxypropylcellulose) (HPC) 101 % of control

C=COCCN(C)C
inactive: dose: 50.0 mg/kg/injection, schedule: Q01DX009 (ip), vehicle: saline 90 % of control | dose: 100.0 mg/kg/injection, schedule: Q01DX009 (ip), vehicle: saline 93 % of control | [2] 105 % of control | dose: 200.0 mg/kg/injection, schedule: Q01DX009 (ip), vehicle: saline 93 % of control | [3] 89 % of control

CC1(N)CC2CCC1C2 (stereo not given)
inactive: [2] 96 % of control | [3] 92 % of control

O=C(/C=C\C(Cl)(Cl)Cl)c1ccccc1
inactive: [4] 93 % of control | [5] 93 % of control | [6] 97 % of control

[O-][n+]1ccc(-c2ccccc2)cc1
inactive: dose: 100.0 mg/kg/injection, schedule: Q04DX002 (ip), vehicle: saline 107 % of control | dose: 200.0 mg/kg/injection, schedule: Q04DX002 (ip), vehicle: saline 96 % of control

CC1=C(Br)C(=O)C(c2c(C)cc(C)c(Br)c2C)=C(Br)C1=O
inactive: dose: 50.0 mg/kg/injection, schedule: Q04DX003 (ip), vehicle: Klucel (hydroxypropylcellulose) (HPC) 111 % of control | [4] 89 % of control | [7] 92 % of control | [5] 87 % of control | [8] 94 % of control

C(=N\Nc1nc2ccccc2s1)/c1ccccc1
inactive: [9] 95 % of control | [10] 102 % of control | [11] 100 % of control

C/C(CC(=O)Nc1ccccn1)=N\c1ccccn1
inactive: [12] 98 % of control | [13] 92 % of control | [14] 88 % of control

O=C(O)CCc1cnc2ccccc2n1
inactive: [9] 97 % of control | [7] 106 % of control | [10] 95 % of control | [8] 95 % of control | [11] 96 % of control | [15] 92 % of control

CCOC(=O)CCc1ccc2c(c1)OCO2
inactive: [2] 103 % of control | [3] 101 % of control | dose: 400.0 mg/kg/injection, schedule: Q04DX003 (ip), vehicle: saline 95 % of control

COc1ccc(C(C(N)=O)N2CCCCC2)cc1 (stereo not given)
inactive: [9] 95 % of control | [7] 107 % of control | [10] 88 % of control | [8] 94 % of control | [11] 91 % of control | [15] 102 % of control

CC(=O)Oc1cccc2c1C(=O)OC2=O
inactive: dose: 100.0 mg/kg/injection, schedule: Q01DX001 (ip), vehicle: saline with Tween-80 89 % of control | dose: 200.0 mg/kg/injection, schedule: Q01DX001 (ip), vehicle: saline with Tween-80 108 % of control

O=C(OC1CC2CC1C1CSCC21)c1ccc([N+](=O)[O-])cc1 (stereo not given)
inactive: [9] 101 % of control | [7] 105 % of control | [10] 103 % of control | [8] 105 % of control | [11] 103 % of control | [15] 97 % of control

CN(N=O)C(=O)Nc1ccccc1
inactive: dose: 6.25 mg/kg/injection, schedule: Q01DX Z (ip), vehicle: carboxymethylcellulose (CMC) 104 % of control | dose: 12.5 mg/kg/injection, schedule: Q01DX Z (ip), vehicle: carboxymethylcellulose (CMC) 112 % of control | dose: 25.0 mg/kg/injection, schedule: Q01DX Z (ip), vehicle: carboxymethylcellulose (CMC) 112 % of control | dose: 50.0 mg/kg/injection, schedule: Q01DX Z (ip), vehicle: carboxymethylcellulose (CMC) 122 % of control | dose: 100.0 mg/kg/injection, schedule: Q01DX Z (ip), vehicle: carboxymethylcellulose (CMC) 91 % of control | dose: 150.0 mg/kg/injection, schedule: Q01DX001 (ip), vehicle: carboxymethylcellulose (CMC) 112 % of control | dose: 600.0 mg/kg/injection, schedule: Q01DX001 (ip), vehicle: carboxymethylcellulose (CMC) 117 % of control

NNC(=S)N/N=C/c1ccccc1
inactive: [4] 93 % of control | [5] 93 % of control | [6] 100 % of control

COc1ccc(OC)c(NC(=O)Nc2ccccc2C(F)(F)F)c1
inactive: [9] 102 % of control | [10] 89 % of control | [11] 95 % of control

CCOC(=O)C(Br)CCCC(Br)C(=O)OCC (stereo not given)
inactive: [16] 90 % of control | dose: 400.0 mg/kg/injection, schedule: Q01DX009 (ip), vehicle: saline with Tween-80 89 % of control

ClC1=C(Cl)C(Cl)(Cl)C1(Cl)Cl
inactive: dose: 75.0 mg/kg/injection, schedule: Q01DX001 (ip), vehicle: carboxymethylcellulose (CMC) 109 % of control

ClCc1ccc2ccccc2n1
inactive: dose: 50.0 mg/kg/injection, schedule: Q04DX003 (ip), vehicle: saline with Tween-80 104 % of control | [17] 102 % of control | [18] 93 % of control

[O-]/[N+](=C\c1cccc(Cl)c1)c1ccccc1
inactive: dose: 50.0 mg/kg/injection, schedule: Q01DX001 (ip), vehicle: saline 102 % of control | [12] 100 % of control | [7] 107 % of control | [13] 100 % of control | [8] 100 % of control | [14] 112 % of control

CCOc1c[n+](C)c(/C=C/c2ccccc2)s1
inactive: dose: 5.0 mg/kg/injection, schedule: Q01DX001 (ip), vehicle: carboxymethylcellulose (CMC) 108 % of control | dose: 10.0 mg/kg/injection, schedule: Q01DX001 (ip), vehicle: carboxymethylcellulose (CMC) 97 % of control | dose: 20.0 mg/kg/injection, schedule: Q01DX001 (ip), vehicle: carboxymethylcellulose (CMC) 94 % of control | dose: 40.0 mg/kg/injection, schedule: Q01DX001 (ip), vehicle: carboxymethylcellulose (CMC) 103 % of control

COC(=O)C1=CN(C(=O)OC)CCC1
inactive: [4] 95 % of control | [5] 88 % of control | [6] 92 % of control

Cn1c2nc(=O)n(-c3ccccc3)c(=O)c-2nc2c1CCCC2
inactive: dose: 6.25 mg/kg/injection, schedule: Q01DX009 (ip), vehicle: saline with Tween-80 110 % of control | dose: 12.5 mg/kg/injection, schedule: Q01DX009 (ip), vehicle: saline with Tween-80 106 % of control | dose: 25.0 mg/kg/injection, schedule: Q01DX009 (ip), vehicle: saline with Tween-80 101 % of control | dose: 50.0 mg/kg/injection, schedule: Q01DX009 (ip), vehicle: saline with Tween-80 103 % of control | [16] 105 % of control | [19] 100 % of control

C/C(Cc1ccccc1)=N/N(C)C
inactive: [16] 113 % of control | [17] 102 % of control | [19] 104 % of control | [18] 95 % of control | dose: 400.0 mg/kg/injection, schedule: Q04DX003 (ip), vehicle: saline with Tween-80 95 % of control

CC(OC(=O)CBr)C(C)OC(=O)CBr (stereo not given)
inactive: dose: 50.0 mg/kg/injection, schedule: Q01DX001 (sc), vehicle: carboxymethylcellulose (CMC) 98 % of control | dose: 100.0 mg/kg/injection, schedule: Q01DX001 (sc), vehicle: carboxymethylcellulose (CMC) 98 % of control | dose: 200.0 mg/kg/injection, schedule: Q01DX001 (sc), vehicle: carboxymethylcellulose (CMC) 95 % of control | dose: 400.0 mg/kg/injection, schedule: Q01DX001 (sc), vehicle: carboxymethylcellulose (CMC) 98 % of control

CCCCCCCCCC(=O)N/N=C/c1cccs1
inactive: [9] 101 % of control | [10] 101 % of control | [11] 89 % of control

CCCCSC(=O)C(C)O (stereo not given)
inactive: [1] 99 % of control | dose: 200.0 mg/kg/injection, schedule: Q04DX002 (ip), vehicle: saline with Tween-80 89 % of control | dose: 400.0 mg/kg/injection, schedule: Q04DX002 (ip), vehicle: saline with Tween-80 86 % of control
